US8790891B2, “Microfluidic cell motility assay” (The General Hospital Corporation, priority 2009, dated 2014)
“Also recorded” adds a separate entry of the source.

Tested on: MDA-MB231 breast cancer cells
Assay: Microcapillary motility assay (MMA) with agents that alter microtubule dynamics
Assay type: cell-based, human
Conditions: for kymograph analysis of single cell motility: 18 hour period, FIG. 13; for concentration at which persistent motility is inhibited: microcapillaries, no chemical gradient; for effect on persistent migration behavior: different concentrations, summary of Example 11; for effect on speed of cancer cell migration through the microcapillary array: result in words
Excerpt: Referring now to FIGS. 7A-7B, a microcapillary motility assay (MMA) device 700 including microfluidic devices 750 were manufactured by casting polydimethyl siloxane (PDMS, Dow Corning, Midland. Mich.) on a microstructured mold. The microstructured mold was fabricated using standard photolithographic technologies. A silicon wafer was coated with a 10 μm thin layer of photoresist (SU8, Microchem, Newton, Mass.) and processed following the standard protocol as recommended by the manufacturer. A second, thicker layer of approximately 50 μm was then photopatterned on the same wafer and aligned with respect to the first layer in order to define the connections between the capillaries and the wells. The mold was placed in a Petri-dish and covered with PDMS freshly prepared according to the manufacturer's instructions. After baking for 8 hours at 65° C., the cast PDMS was removed from the mold, one microwell for each device was punched using a 2 mm puncher, and each device was cut using a 5 mm puncher. After exposure for 20 seconds to oxygen plasma in a plasma asher (March, Concord, Calif.), the devices were individually bonded on the coverslips at the bottom of 24-well plates (Mattek, Ashland, Mass.).
After bonding, and while the PDMS was still hydrophilic, 2 μL of a solution of 2 μg/mL collagen IV was added inside the center microwell of each device. The strong capillary force ensured the collagen solution filled the capillaries. Excess collagen was later washed away by adding 5 μL of phosphate buffer (PBS) in only one well of the devices. Alternatively, 2 μL of Matrigel (BD Biosciences, San Jose, Calif.) was added in one well at 4° C. and the entire plate was heated to 37° C. for 5 minutes.
Before performing each migration assay, cells growing in cell culture flasks were washed with PBS, lifted from the surface using trypsin or 10 mM calcium chelator solution in buffer (EDTA, Sigma Aldrich, St. Louis, Mo.), suspended into 10 mL of media, centrifuged, and re-suspended into media at 10^6 cells/mL. Cells were then seeded in one well of each device, by directly pipetting 3-4 μL of the cell suspension in each well. After loading the cells, 3 mL of corresponding media were added to each well of the multi-well plate, completely covering the devices.
To image the moving cells, the multi-well plate was placed on the motorized stage of a Zeiss Axiovert microscope fitted with an environmental chamber. The environment was set at 37.7° C. and 5% CO2. Cells were imaged using 10× objective and phase contrast. Three separate images from each array were acquired every 6 minutes for 24-48 hours. Because cell motility is restricted only along the capillary, in one linear dimension, the motility is easy to image and easy to quantify for extended periods of times. We have tracked cells for more than 72 hours.
To quantify the migration of individual cells, images were analyzed using the manual tracking function in the Image J software. The middle of cells was tracked through the series of frames and only cells entering the microcapillaries were tracked. At least 50 cells migrating through the capillaries were tracked for each condition. Average velocity over 12 hours was calculated from temporary velocities over each 6 minutes interval and presented as mean and standard error of the mean.
To probe into the mechanisms responsible for persistent cell migration, we exposed the cells to drugs that alter microtubule dynamics while performing the MMA described in Example 2 using the microfluidic device shown in FIG. 2.

[1] = MDA-MB231 breast cancer line, FIG. 11

With COC(=O)Nc1nc2ccc(C(=O)c3cccs3)cc2[nH]1 [Nocodazole] the “kymograph analysis of single cell motility” value (nocodazole 0.05 ng/mL) was “frequent changes of direction and less persistence”, the “concentration at which migration of the fastest moving cells is inhibited” value (MDA-MB231 breast cancer line, FIG. 11, only Nocodazole) was “above 1 ng/mL” and the “concentration at which persistent motility is inhibited” value [1] was “above 0.5 ng/mL”. The “concentration that significantly altered the speed of migration for all cells in the population” value (all cells in the population) was greater than 1 µM, the “effect on persistent migration behavior” value was “alteration of the persistent migration behavior” and the “concentration of significant decrease in motility (dose response)” value (migration through microcapillary array) was less than 100 nM. The “effect on speed of cancer cell migration through the microcapillary array” value was “significantly decrease the speed”.
For CC(=O)O[C@H]1C(=O)[C@@]2(C)[C@H]([C@H](OC(=O)c3ccccc3)[C@]3(O)C[C@H](OC(=O)[C@H](O)[C@@H](NC(=O)c4ccccc4)c4ccccc4)C(C)=C1C3(C)C)[C@]1(OC(C)=O)CO[C@@H]1C[C@@H]2O [Taxol, Paclitaxel], the “kymograph analysis of single cell motility” value (taxol 12 nM) was “persistent movement along the microcapillary; also recorded: reverses direction at the end of the microcapillary”, the “concentration at which persistent motility is inhibited” value [1] was “above 100 ng/mL” and the “speed of the fastest cells under drug” value (Taxol between 1 and 10 μM, some cells only) was greater than 100 μm/hour. For the same molecule, the “effect on persistent migration behavior” value was “does not alter the persistent migration” and the “effect on speed of cancer cell migration through the microcapillary array” value was “significantly decrease the speed”.
